Assay results published in patent US20220119354A1, “DIAMINO-SUBSTITUTED PYRIDINES AND PYRIMIDINES AS HERBICIDES” (FMC Corporation, priority 2019, published 2022).

Experiments:
Type in all cases: in vivo
[1] = test system: sedge, umbrella (small-flower umbrella sedge, Cyperus difformis); experiment: Test B flooded paddy test, umbrella sedge; conditions: Flood, 250 g ai/ha, applied to paddy water, 2-leaf stage, visual evaluation after 13 to 15 d
Method in brief: (§1)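 2-leaf seedlings; pots flooded 3 cm above soil; compound added straight to paddy water; depth maintained. Greenhouse 13–15 d. Visual rating vs controls, 0–100 scale (0 = no effect, 100 = complete control).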

[2] = test system: barnyardgrass (Echinochloa crus-galli); experiment: Test A postemergence, barnyardgrass; conditions: 0 to 100 scale
Method in brief: (§2)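 Visual injury scores (0 no effect to 100 complete control) were assigned about 10 d after treatment by comparison with untreated controls. Test chemicals, formulated in a surfactant-containing non-phytotoxic solvent, were applied to soil at planting or to plants at the one- to two-leaf stage.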

[3] = test system: ryegrass, Italian (Lolium multiflorum); experiment: Test A preemergence, Italian ryegrass; conditions: 0 to 100 scale
Method in brief: as §2

[4] = test system: barnyardgrass (Echinochloa crus-galli); experiment: Test A preemergence, barnyardgrass; conditions: 0 to 100 scale
Method in brief: as §2

[5] = test system: ragweed (common ragweed, Ambrosia elatior); experiment: Test A preemergence, ragweed; conditions: 0 to 100 scale
Method in brief: as §2

rice (Oryza sativa) = experiment: Test B flooded paddy test, rice; conditions: Flood, 250 g ai/ha, applied to paddy water, 2-leaf stage, visual evaluation after 13 to 15 d
Method in brief: as §1

[6] = test system: ducksalad (Heteranthera limosa); experiment: Test B flooded paddy test, ducksalad; conditions: Flood, 250 g ai/ha, applied to paddy water, 2-leaf stage, visual evaluation after 13 to 15 d
Method in brief: as §1

[7] = test system: galium (catchweed bedstraw, Galium aparine); experiment: Test A postemergence, galium; conditions: 0 to 100 scale
Method in brief: as §2

[8] = test system: foxtail, giant (Setaria faberii); experiment: Test A postemergence, giant foxtail; conditions: 0 to 100 scale
Method in brief: as §2

[9] = test system: barnyardgrass (Echinochloa crus-galli); experiment: Test B flooded paddy test, barnyardgrass; conditions: Flood, 250 g ai/ha, applied to paddy water, 2-leaf stage, visual evaluation after 13 to 15 d
Method in brief: as §1

[10] = test system: pigweed (Amaranthus retroflexus); experiment: Test A preemergence, pigweed; conditions: 0 to 100 scale
Method in brief: as §2

kochia (Kochia scoparia) [11] = experiment: Test A postemergence, kochia; conditions: 0 to 100 scale
Method in brief: as §2

corn (Zea mays) = experiment: Test A postemergence, corn; conditions: 0 to 100 scale
Method in brief: as §2

[12] = test system: ragweed (common ragweed, Ambrosia elatior); experiment: Test A postemergence, ragweed; conditions: 0 to 100 scale
Method in brief: as §2

[13] = test system: foxtail, giant (Setaria faberii); experiment: Test A preemergence, giant foxtail; conditions: 0 to 100 scale
Method in brief: as §2

[14] = test system: wheat (Triticum aestivum); experiment: Test A postemergence, wheat; conditions: 0 to 100 scale
Method in brief: as §2

[15] = test system: pigweed (Amaranthus retroflexus); experiment: Test A postemergence, pigweed; conditions: 0 to 100 scale
Method in brief: as §2

[16] = test system: ryegrass, Italian (Lolium multiflorum); experiment: Test A postemergence, Italian ryegrass; conditions: 0 to 100 scale
Method in brief: as §2

kochia (Kochia scoparia) [17] = experiment: Test A preemergence, kochia; conditions: 0 to 100 scale
Method in brief: as §2

[18] = test system: blackgrass (Alopecurus myosuroides); experiment: Test A postemergence, blackgrass; conditions: 0 to 100 scale
Method in brief: as §2

C[C@@H](Nc1ncc(C(F)(F)F)c(N)n1)C1Cc2ccccc2C1 [Compound 13, N2-[(1R)-1-(2,3-dihydro-1H-inden-2-yl)ethyl]-5-(trifluoromethyl)-2,4-pyrimidinediamine]
pest or weed control at 250 g/ha ([1]; Cyperus difformis, 360 h, read-out: Plant response rating, Sedge, Umbrella (0 to 100 scale, 0 is no effect, 100 is complete control)): 95%
pest or weed control at 125 g/ha ([2]; Echinochloa crus-galli, post-emergence, 240 h, 125 g ai/ha, read-out: Plant response rating, Barnyardgrass): 30%
pest or weed control at 500 g/ha ([2]; Echinochloa crus-galli, post-emergence, 240 h, 500 g ai/ha, read-out: Plant response rating, Barnyardgrass): 60%
Plant response rating, Ryegrass, Italian ([3]; 125 g ai/ha): 60
Plant response rating, Ryegrass, Italian ([3]; 500 g ai/ha): 100
Plant response rating, Barnyardgrass ([4]; 125 g ai/ha): 90
Plant response rating, Barnyardgrass ([4]; 500 g ai/ha): 100
Plant response rating, Ragweed ([5]; 125 g ai/ha): 100
Plant response rating, Ragweed ([5]; 500 g ai/ha): 100
plant injury at 250 g/ha (rice (Oryza sativa); Oryza sativa, 360 h, read-out: Plant response rating, Rice (0 to 100 scale, 0 is no effect, 100 is complete control)): 10%
pest or weed control at 250 g/ha ([6]; Heteranthera limosa, 360 h, read-out: Plant response rating, Ducksalad (0 to 100 scale, 0 is no effect, 100 is complete control)): 75%
pest or weed control at 125 g/ha ([7]; Galium, post-emergence, 240 h, 125 g ai/ha, read-out: Plant response rating, Galium): 80%
pest or weed control at 500 g/ha ([7]; Galium, post-emergence, 240 h, 500 g ai/ha, read-out: Plant response rating, Galium): 80%
pest or weed control at 125 g/ha ([8]; Setaria faberi, post-emergence, 240 h, 125 g ai/ha, read-out: Plant response rating, Foxtail, Giant): 80%
pest or weed control at 500 g/ha ([8]; Setaria faberi, post-emergence, 240 h, 500 g ai/ha, read-out: Plant response rating, Foxtail, Giant): 100%
pest or weed control at 250 g/ha ([9]; Echinochloa crus-galli, 360 h, read-out: Plant response rating, Barnyardgrass (0 to 100 scale, 0 is no effect, 100 is complete control)): 90%
Plant response rating, Pigweed ([10]; 125 g ai/ha): 100
Plant response rating, Pigweed ([10]; 500 g ai/ha): 100
pest or weed control at 125 g/ha (kochia (Kochia scoparia) [11]; Bassia scoparia, post-emergence, 240 h, 125 g ai/ha, read-out: Plant response rating, Kochia): 90%
pest or weed control at 500 g/ha (kochia (Kochia scoparia) [11]; Bassia scoparia, post-emergence, 240 h, 500 g ai/ha, read-out: Plant response rating, Kochia): 100%
Corn plant response rating (crop injury, 0 = no effect, 100 = complete kill) at 125 g/ha (corn (Zea mays); Zea mays, post-emergence, 240 h, 125 g ai/ha): 10%
Corn plant response rating (crop injury, 0 = no effect, 100 = complete kill) at 500 g/ha (corn (Zea mays); Zea mays, post-emergence, 240 h, 500 g ai/ha): 60%
pest or weed control at 125 g/ha ([12]; Ambrosia artemisiifolia, post-emergence, 240 h, 125 g ai/ha, read-out: Plant response rating, Ragweed): 30%
pest or weed control at 500 g/ha ([12]; Ambrosia artemisiifolia, post-emergence, 240 h, 500 g ai/ha, read-out: Plant response rating, Ragweed): 80%
Plant response rating, Foxtail, Giant ([13]; 125 g ai/ha): 100
Plant response rating, Foxtail, Giant ([13]; 500 g ai/ha): 100
plant injury at 125 g/ha ([14]; Triticum aestivum, post-emergence, 240 h, 125 g ai/ha, read-out: Plant response rating, Wheat): 0%
plant injury at 500 g/ha ([14]; Triticum aestivum, post-emergence, 240 h, 500 g ai/ha, read-out: Plant response rating, Wheat): 20%
pest or weed control at 125 g/ha ([15]; Amaranthus retroflexus, post-emergence, 240 h, 125 g ai/ha, read-out: Plant response rating, Pigweed): 100%
pest or weed control at 500 g/ha ([15]; Amaranthus retroflexus, post-emergence, 240 h, 500 g ai/ha, read-out: Plant response rating, Pigweed): 100%
pest or weed control at 125 g/ha ([16]; Lolium multiflorum, post-emergence, 240 h, 125 g ai/ha, read-out: Plant response rating, Ryegrass, Italian): 0%
pest or weed control at 500 g/ha ([16]; Lolium multiflorum, post-emergence, 240 h, 500 g ai/ha, read-out: Plant response rating, Ryegrass, Italian): 20%
Plant response rating, Kochia (kochia (Kochia scoparia) [17]; 125 g ai/ha): 100
Plant response rating, Kochia (kochia (Kochia scoparia) [17]; 500 g ai/ha): 100
pest or weed control at 125 g/ha ([18]; Alopecurus myosuroides, post-emergence, 240 h, 125 g ai/ha, read-out: Plant response rating, Blackgrass): 10%
pest or weed control at 500 g/ha ([18]; Alopecurus myosuroides, post-emergence, 240 h, 500 g ai/ha, read-out: Plant response rating, Blackgrass): 30%

Cc1ccc2cc([C@@H](C)Nc3ncc(C(F)(F)F)c(N)n3)oc2c1 [Compound 14]
Plant response rating, Sedge, Umbrella (0 to 100 scale, 0 is no effect, 100 is complete control) [1]: 0
Plant response rating, Barnyardgrass ([2]; 125 g ai/ha): 10
Plant response rating, Barnyardgrass ([2]; 500 g ai/ha): 40
Plant response rating, Ryegrass, Italian ([3]; 125 g ai/ha): 0
Plant response rating, Ryegrass, Italian ([3]; 500 g ai/ha): 60
Plant response rating, Barnyardgrass ([4]; 125 g ai/ha): 90
Plant response rating, Barnyardgrass ([4]; 500 g ai/ha): 100
Plant response rating, Ragweed ([5]; 125 g ai/ha): 100
Plant response rating, Ragweed ([5]; 500 g ai/ha): 100
Plant response rating, Rice (0 to 100 scale, 0 is no effect, 100 is complete control) (rice (Oryza sativa)): 0
Plant response rating, Ducksalad (0 to 100 scale, 0 is no effect, 100 is complete control) [6]: 0
Plant response rating, Galium ([7]; 125 g ai/ha): 80
Plant response rating, Galium ([7]; 500 g ai/ha): 80
Plant response rating, Foxtail, Giant ([8]; 125 g ai/ha): 10
Plant response rating, Foxtail, Giant ([8]; 500 g ai/ha): 90
Plant response rating, Barnyardgrass (0 to 100 scale, 0 is no effect, 100 is complete control) [9]: 0
Plant response rating, Pigweed ([10]; 125 g ai/ha): 90
Plant response rating, Pigweed ([10]; 500 g ai/ha): 100
Plant response rating, Kochia (kochia (Kochia scoparia) [11]; 125 g ai/ha): 90
Plant response rating, Kochia (kochia (Kochia scoparia) [11]; 500 g ai/ha): 90
Plant response rating, Corn (corn (Zea mays); 125 g ai/ha): 10
Plant response rating, Corn (corn (Zea mays); 500 g ai/ha): 10
Plant response rating, Ragweed ([12]; 125 g ai/ha): 0
Plant response rating, Ragweed ([12]; 500 g ai/ha): 70
Plant response rating, Foxtail, Giant ([13]; 125 g ai/ha): 90
Plant response rating, Foxtail, Giant ([13]; 500 g ai/ha): 100
Plant response rating, Wheat ([14]; 125 g ai/ha): 0
Plant response rating, Wheat ([14]; 500 g ai/ha): 0
Plant response rating, Pigweed ([15]; 125 g ai/ha): 90
Plant response rating, Pigweed ([15]; 500 g ai/ha): 90
Plant response rating, Ryegrass, Italian ([16]; 125 g ai/ha): 0
Plant response rating, Ryegrass, Italian ([16]; 500 g ai/ha): 0
Plant response rating, Kochia (kochia (Kochia scoparia) [17]; 125 g ai/ha): 60
Plant response rating, Kochia (kochia (Kochia scoparia) [17]; 500 g ai/ha): 90
Plant response rating, Blackgrass ([18]; 125 g ai/ha): 30
Plant response rating, Blackgrass ([18]; 500 g ai/ha): 30
